These are literature values, as cited in EP3003384B1 (Lamda Laboratories S.A., priority 2014, dated 2015).

The conditions of this series: at room temperature.

SMILES strings stand for the structures. Counter-ions that a name gives are not always drawn.

`CNCC[C@@H](Oc1ccccc1C)c1ccccc1` [atomoxetine hydrochloride]: the soluble in water was 27.8 mg/mL.
